According to publication PMC5391125, “Fatty acid DSF binds and allosterically activates histidine kinase RpfC of phytopathogenic bacterium Xanthomonas campestris pv. campestris to regulate quorum-sensing and virulence” (PLoS Pathogens, 2017):

Legend:
[1] = target: T1, soluble RpfC^Δinput (Xanthomonas campestris pv. campestris, UniProt P0C0F7); assay: Thermal shift assay, soluble RpfC^Δinput; assay type: binding
T1 construct: a truncated, soluble RpfC protein (RpfC^Δinput) lacking the N-terminal input region (including sensor and TM domains) was obtained and purified; His6 (C); made in house; host or cells: E. coli BL21(DE3), pET30a
Method: DSF was mixed with purified proteins or liposomes of RpfC to a final concentration of 0 μM, 5 μM or 10 μM respectively in the reaction buffer (50 mM Tris-HCl pH 7.8, 25 mM NaCl, 100 mM KCl). The protein concentration was 0.5–1 μg/μl. The TSA was performed by a Prometheus NT.48 nanoDSF device with a temperature gradient of 20–95°C, 1°C /min. Unfolding transition points were determined according to the changes of intrinsic tryptophan fluorescence at 330 nm, 350 nm. The ratio of fluorescence and the melting temperature (Tm) were calculated by the NT Melting Control software (NanoTemper Technologies).

[2] = target: T2, RpfC^FL liposome (Xanthomonas campestris pv. campestris, UniProt P0C0F7); assay: In vitro autokinase (phosphorylation) assay, RpfC^FL liposome; assay type: biochemical; conditions: 10 μM DSF
T2 construct: His6 (C); made in house; host or cells: E. coli BL21(DE3), pET30a
Method: (§1) in vitro phosphorylation assay was conducted as described in our previous study. For autophosphoylation, RpfC liposomes or IMV were incubated with 100 μM ATP containing 10 μCi [γ-^32P]ATP (PerkinElmer, USA) in autophosphorylation buffer (50 mM Tris-HCl, pH 7.8, 2 mM DTT, 25 mM NaCl, 25 mM KCl, 5 mM MgCl2) for indicated time (28°C). If necessary, DSF was added into the mixture 20 min before addition of ATP. The reaction was stopped with 6 × SDS-PAGE loading buffer. The phosphorylated proteins were separated by 12% SDS-PAGE. After SDS-PAGE electrophoresis, gels were separated from back glass plate and placed in a Ziploc bag and exposed to a phosphor screen for 1 hour. The screen was scanned with a PhosphorImage system (Amersham Biosciences, USA) at […]. If necessary, signal intensity was measured by Quantity One software (Bio-Rad).

[3] = target: T3, RpfC^FL IMV (Xanthomonas campestris pv. campestris, UniProt P0C0F7); assay: In vitro autokinase assay, RpfC^FL inverted membrane vesicles; assay type: biochemical; conditions: 10 μM DSF
T3 construct: His6 (C); made in house; host or cells: E. coli BL21(DE3), pET30a
Method: as §1

[4] = target: T4, RpfC^FL (Xanthomonas campestris pv. campestris, UniProt P0C0F7); assay: Dose-response of DSF on RpfC autokinase activity; assay type: biochemical
T4 construct: His6 (C); made in house; host or cells: E. coli BL21(DE3), pET30a
Method: as §1

[5] = target: T5, RpfC^S3A liposome (Xanthomonas campestris pv. campestris, UniProt P0C0F7, S3A); assay: Autokinase assay, RpfC^S3A liposome; assay type: biochemical; conditions: 0.75 μM DSF, 5 min
T5 construct: His6 (C); made in house; host or cells: E. coli BL21(DE3), pET30a
Method: as §1

[6] = target: T6, RpfC^Q22A liposome (Xanthomonas campestris pv. campestris, UniProt P0C0F7, Q22A); assay: Autokinase assay, RpfC^Q22A liposome; assay type: biochemical; conditions: 0.75 μM DSF, 5 min
T6 construct: His6 (C); made in house; host or cells: E. coli BL21(DE3), pET30a
Method: as §1

[7] = target: T7, RpfC^S18T liposome (Xanthomonas campestris pv. campestris, UniProt P0C0F7, S18T); assay: Autokinase assay, RpfC^S18T liposome; assay type: biochemical; conditions: 0.75 μM DSF, 5 min; increase slightly lower than WT RpfC
T7 construct: His6 (C); made in house; host or cells: E. coli BL21(DE3), pET30a
Method: as §1

[8] = target: T8, RpfC sensor peptide (Xanthomonas campestris pv. campestris, UniProt P0C0F7); assay: Circular dichroism of RpfC sensor peptide; conditions: sensor 60 μM; DSF 0, 100, 500 μM
T8 construct: GST (N, cleaved yes); made in house; host or cells: E. coli BL21 (DE3), pGEX6P-1
Method: To determine if DSF has impact on RpfC sensor conformation change, CD analysis was carried out on a Chirascan CD Spectrometer (Applied Photophysics, UK), with 10 mm pathlength and 1 nm bandwidth. Sensor protein with GST tag cleaved off was dissolved in buffer (50 mM Tris-HCl pH 8.5, 150 mM NaCl) to 60 μM. Dilute DSF with Sensor protein to a series of concentration (0 μM, 100 μM and 500 μM). CD wavelength scans were collected between 200 nm-260 nm. The spectra data were analyzed on the http://dichroweb.cryst.bbk.ac.uk website with Contin-LL method.

[9] = target: GST (Schistosoma japonicum, UniProt P08515); assay: Circular dichroism of GST; conditions: GST 6 μM
[10] = target: T2, RpfC^FL liposome; assay: Limited proteolysis of RpfC^FL liposome; conditions: with AMP-PNP, vs DSF minus control
Method: The limited proteolysis experiments were performed at 0°C with 1.4 μg RpfC liposomes in a reaction buffer containing 50 mM Tris-HCl, pH 8.0, 100 mM NaCl, 2 mM DTT and 1.13 mM AMP-PNP. Trypsin was added to a final concentration of 0.018 μg μl^-1 to degrade RpfC liposome. Aliquot was removed at indicated time and the reaction was stopped by 5 × SDS loading buffer (250 mM Tris-HCl pH 6.8, 10% (w/v) SDS, 0.5% (w/v) bromophenol blue, 50% (v/v) glycerol, 25 mM PMSF). Samples were separated by 12% SDS-PAGE gel and protein bands were detected by silver staining. The sequence of the different peptide fragments were determined by a nanoLC-MS/MS with Orbitrap Fusion system (Thermo scientific, USA).

[11] = target: RpfS; set-up: method as in PMID 24617591, PMID 23815566; conditions: by ITC; read-out: binding affinity (Kd) DSF-RpfS; cited from earlier work
[12] = tested on: cell-cell communication; set-up: method as in PMID 14731288; conditions: cited from earlier work

Compound: CC(C)CCCCCCC/C=C\C(=O)O [DSF, cis-11-methyl-dodecenoic acid]
- thermal shift after DSF stimulation [1]: no thermal shift was detected
- level of RpfC^FL-P phosphorylation compared with the control [2]: approximately doubled
- time of increase in phosphorylation level post DSF addition [2]: 2 min
- level of RpfC^FL-P phosphorylation compared with the control [3]: approximately doubled
- time of increase in phosphorylation level post DSF addition [3]: 30 s
- DSF concentration at which RpfC^FL-P levels tapered off (saturation) [4]: ~20 µM
- DSF concentration sufficient to elicit a detectable increase in RpfC^FL-P level [4]: 0.5 µM
- RpfC-P level under DSF stimulation [5]: remarkably increased
- RpfC-P levels under DSF treatment [6]: significant decrease
- autophosphorylation level under DSF stimulation [7]: increased
- ratio of strand in secondary structure [8]: gradually elevated
- impact on secondary structure [9]: did not have recognizable impact
- DHp-CA fragment (30 kDa) after trypsin limited proteolysis [10]: large accumulation
- Kd [11]: 1400 nM
- minimal bioactive concentration of DSF required for eliciting cell-cell communication [12]: approximately 0.5 μM
